Measured values published in US20110039770A1, “INHIBITORS OF PROTEIN KINASE C ISOFORMS AND USES THEREOF” (PHARMAGAP INC., priority 2005, published 2011).
Where a SMILES comes first, the peptide text is derived from it. The star is where a group is joined. PNA(A) = NCCN(CC(=O)*)C(=O)Cn1cnc2c(N)ncnc21

Legend:
[1] = target: T1, PKC-β (Homo sapiens, UniProt P05771); test: Competition of PRE with PKC-β antibody binding, Protocol B, IMR-32
T1 construct: PRE 2 and PRE 3 in IMR-32 Neuroblastoma Cells: Protocol A; endogenous in cells; host or cells: IMR-32 human neuroblastoma cells
Experimental: The ability of the peptides PRE 2 and PRE 3 (see Table 4) to interfere with the binding of a PKC-α-specific polyclonal antibody (Santa Cruz Biotechnology, Inc.) to PKC-α was determined using a modified version of the protocol outlined above in which the test peptide was added directly to the cell extract prior to electrophoresis at a concentration of either 5× or 15× the concentration of the protein applied to each well of the gel for the Western blots (20 μg).
Peptides PRE 2 and PRE 3 (see Table 4) were tested for their ability to interfere with the binding of a PKC-β-specific polyclonal antibody (Santa Cruz Biotechnology, Inc.) to PKC-β using the general protocol described in Example 3.

[2] = target: PKC-α (Homo sapiens, UniProt P17252); test: Competition of PRE with PKC-α antibody binding on Western blot, Protocol A, IMR-32 lysate; parameters: endogenous PKC-α in (A) untreated human neuroblastoma (IMR-32) cells; endogenous in cells; host or cells: IMR-32 human neuroblastoma cells; conditions: IMR-32 cells
[3] = test system: MDA MB231 cells; test: Matrigel invasion/migration with EGF as chemoattractant; assay type: cell-based, human; conditions: 24 h; 10 ng/ml EGF
Experimental: Experiments were conducted to investigate the effect of compound TIM 10 (5 mM dose) on migration of human breast cancer cells (MDA MB231) with and without EGF (10 ng/ml) as a chemo-attractant. A standard a two-chamber culture system (BD BIOcoat™ Matrigel™ Invasion Chamber; BD Biosciences Clont, Discovery labware, Immunocytometry system Pharmingen) was employed for these experiments. Control chambers used in the following experiment are similar to the invasion chambers except that no Matrigel matrix is present, thus allowing cells to freely reach the lower membrane surface through the membrane pores.
The ability of compound TIM 10 to inhibit invasion/migration of MDA MB231 cells in the presence of the chemoattractant EGF was measured as described above using EGF 10 ng/mL as the chemoattractant.

[4] = target: T2, PKC epsilon (Homo sapiens, UniProt Q02156); test: Kinase-Glo Luminescent Kinase Assay; assay type: biochemical; parameters: purchased; conditions: read-out: % Inhibition PKC-ε
T2 sequence (Q02156 1-737): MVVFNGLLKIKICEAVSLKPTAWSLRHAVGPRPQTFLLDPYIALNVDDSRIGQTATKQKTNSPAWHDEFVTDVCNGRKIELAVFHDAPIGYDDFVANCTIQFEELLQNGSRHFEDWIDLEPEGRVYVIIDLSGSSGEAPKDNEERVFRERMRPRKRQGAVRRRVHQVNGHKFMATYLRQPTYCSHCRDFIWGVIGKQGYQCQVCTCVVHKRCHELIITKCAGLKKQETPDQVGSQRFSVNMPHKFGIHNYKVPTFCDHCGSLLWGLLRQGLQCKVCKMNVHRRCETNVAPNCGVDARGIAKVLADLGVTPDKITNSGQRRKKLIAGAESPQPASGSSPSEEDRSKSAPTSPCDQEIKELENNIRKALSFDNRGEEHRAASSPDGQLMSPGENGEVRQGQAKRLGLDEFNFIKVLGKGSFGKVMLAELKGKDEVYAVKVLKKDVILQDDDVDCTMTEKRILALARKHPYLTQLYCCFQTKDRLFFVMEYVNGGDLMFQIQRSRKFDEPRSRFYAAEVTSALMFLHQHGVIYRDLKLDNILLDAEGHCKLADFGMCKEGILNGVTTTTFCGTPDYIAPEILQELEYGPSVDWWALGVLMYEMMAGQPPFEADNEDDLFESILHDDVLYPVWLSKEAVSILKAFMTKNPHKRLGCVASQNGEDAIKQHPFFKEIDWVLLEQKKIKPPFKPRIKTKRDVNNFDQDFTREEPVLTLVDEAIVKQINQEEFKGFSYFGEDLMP
Experimental: Compounds TIM 10, 11, 13, 14, 15, and 18-22 (see Table 28) were tested for their ability to inhibit the activity of PKC-alpha, beta 1, delta and epsilon isoforms the Kinase-Glo™ Luminescent Kinase Assay (Promega, Cat # V6712/3/4) following the manufacturer's instructions.

[5] = target: PKC alpha (Homo sapiens, UniProt P17252); test: PKC isoform protein levels in cancer cell lines after TIM 10 (Western blot); assay type: cell-based; parameters: endogenous in cells; host or cells: MDA MB-231, T24, SKOV-3, MCF-7, Capan-2, NCI-H661, Calu-6, Calu-3; conditions: 5 mM by pinocytic influx, 24 hrs
Experimental: The effect of compound TIM 10 on the levels of protein for various PKC isoforms was assessed as generally described below in the following human cancer cell lines: MDA MB-231 breast adenocarcinoma cells (ATCC HTB-26); T24 bladder transitional cell carcinoma (ATCC HTB-4); SKOV-3 ovary adenocarcinoma (ATCC HTB-77); MCF-7 breast adenocarcinoma (ATCC HTB-22); Capan-2 pancreatic adenocarcinoma (ATCC HTB-80); NCI-H661 NSCL large cells (ATCC HTB-183); Calu-6 probable lung anaplastic carcinoma (ATCC HTB-56) and Calu-3 lung adenocarcinoma (ATCC HTB-55).
Cells representative of the different cancer types were cultured according to ATCC instructions. At subconfluence, the cells were trypsinized and compound 10 (5 mM) was incorporated into the cells by pinocytic influx endocytosis according to the manufacturer's instructions (Molecular Probe). Matching controls were treated accordingly except that vehicle was incorporated instead of compound 10. Following pinocytic influx, the cells were seeded and allowed to grow in fresh medium for 24 hrs. The cell cultures were further extracted using RIPA lysis buffer according to standard protocol. The protein content of each lysate was measured using Bradford protein estimation procedure (BioRad) and normalized. Following addition of sample buffer, the proteins from 15 μl of each extract were separated by electrophoresis, electro-transferred to nitrocellulose membranes and the various isoforms of PKC were detected using appropriate antibodies (Santa Cruz Biotechnology, Inc., CA). The relative intensity of bands of the expected molecular weight was estimated after scanning and the % decrease in the band intensity relative to control was calculated.

T1 sequence (P05771 whole entry): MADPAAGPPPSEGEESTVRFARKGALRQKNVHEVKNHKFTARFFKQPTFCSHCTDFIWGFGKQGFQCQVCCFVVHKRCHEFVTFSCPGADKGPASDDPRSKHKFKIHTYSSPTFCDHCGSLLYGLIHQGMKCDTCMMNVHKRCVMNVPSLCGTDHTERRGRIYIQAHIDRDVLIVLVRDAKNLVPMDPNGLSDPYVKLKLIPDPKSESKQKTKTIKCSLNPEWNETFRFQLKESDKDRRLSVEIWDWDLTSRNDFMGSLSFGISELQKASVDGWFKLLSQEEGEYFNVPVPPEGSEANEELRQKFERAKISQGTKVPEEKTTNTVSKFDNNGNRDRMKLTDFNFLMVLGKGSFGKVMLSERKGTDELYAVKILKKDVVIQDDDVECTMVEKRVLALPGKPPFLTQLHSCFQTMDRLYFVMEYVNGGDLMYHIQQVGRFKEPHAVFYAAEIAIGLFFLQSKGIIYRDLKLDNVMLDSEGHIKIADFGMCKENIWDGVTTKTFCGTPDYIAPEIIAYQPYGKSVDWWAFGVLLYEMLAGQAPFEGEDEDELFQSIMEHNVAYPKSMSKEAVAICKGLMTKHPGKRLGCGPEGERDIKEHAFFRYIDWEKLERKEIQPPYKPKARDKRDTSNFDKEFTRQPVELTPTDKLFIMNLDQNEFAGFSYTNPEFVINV

Band Intensity ([1]; 100 μg)	Relative Intensity (%) ([1]; 100 μg)	Band Intensity ([1]; 200 μg)	Band Intensity ([1]; 300 μg)	Relative Intensity (%) ([1]; 300 μg)	Band Intensity ([2]; 600 μg)	Band Intensity ([2]; 3.75 mg)	Band Intensity ([2]; 5.25 mg)	Band Intensity ([2]; 7.5 mg)	SMILES	inhibition in cell growth [3] [%]	inhibition at 15 µM ([4]; 15.0 μM) [%]	inhibition at 30 µM ([4]; 30.0 μM) [%]	% decrease PKC-α band intensity relative to control ([5]; Calu-3) [%]	% decrease PKC-α band intensity relative to control ([5]; Calu-6) [%]	% decrease PKC-α band intensity relative to control ([5]; Capan-2) [%]	% decrease PKC-α band intensity relative to control ([5]; H661) [%]	% decrease PKC-α band intensity relative to control ([5]; MCF-7) [%]	% decrease PKC-α band intensity relative to control ([5]; MDA-MB231) [%]	% decrease PKC-α band intensity relative to control ([5]; SK-OV-3) [%]	% decrease PKC-α band intensity relative to control ([5]; T24) [%]
0.0	0.0	0.0	0.0	0.0	0.888	0.600	0.603	0.609	CC[C@H](C)[C@H](NC(=O)[C@H](CO)NC(=O)[C@@H](NC(=O)CNC(=O)[C@@H](NC(=O)[C@H](CC(C)C)NC(=O)[C@H](CC(N)=O)NC(=O)[C@H](CCC(N)=O)NC(=O)[C@H](C)NC(=O)[C@H](CC(=O)O)NC(=O)CNC(=O)CNC(=O)[C@H](CCCCN)NC(=O)[C@@H](NC(=O)[C@H](CCC(=O)O)NC(=O)[C@H](CCC(N)=O)NC(=O)[C@@H](NC(=O)CNC(=O)[C@H](CCCCN)NC(=O)[C@H](C)NC(C)=O)[C@@H](C)CC)C(C)C)[C@@H](C)CC)[C@@H](C)CC)C(N)=O [PRE 3] (Ac-AKGIQEVKGGDAQNLIGISI-NH2)											
									CC[C@H](C)[C@H](NC(=O)[C@H](CO)NC(=O)[C@@H](NC(=O)CNC(=O)[C@@H](NC(=O)[C@H](CC(C)C)NC(=O)[C@H](CC(N)=O)NC(=O)[C@H](CCC(N)=O)NC(=O)[C@H](C)NC(=O)[C@H](CC(=O)O)NC(=O)[C@H](CCCCN)NC(=O)CNC(=O)CNC(=O)CNC(=O)CNC(=O)CNC(=O)CNC(=O)CNC(=O)[C@H](CC(C)C)NC(=O)[C@H](CCCNC(=N)N)NC(=O)[C@H](Cc1ccccc1)NC(=O)[C@H](CCCCNC(=O)CN(CCN)C(=O)Cn1cnc2c(N)ncnc21)NC(=O)[C@H](CCCNC(=N)N)NC(=O)[C@H](CCCNC(=N)N)NC(=O)[C@H](Cc1ccccc1)NC(C)=O)[C@@H](C)CC)[C@@H](C)CC)C(N)=O [TIM 10] (Ac-FRRK(PNA(A))FRLGGGGGGGKDAQNLIGISI-NH2)	25	-11	85	21.8	57.8	53.4	28.1	12.0	36.6	63.4	42.5
